Key:
[1] = target: mutant G2019S LRRK2 (Homo sapiens (Human), UniProt Q5S007, G2019S); experiment: LRRK2 Lantha Screen kinase assay, mutant enzyme; type: biochemical; conditions: geometric mean of 2-5 determinations unless otherwise indicated (a: >=6 determinations; b: single determination)
[2] = target: GST-tagged truncated LRRK2 (Homo sapiens (Human), UniProt Q5S007); experiment: LRRK2 Lantha Screen kinase assay; type: biochemical; conditions: geometric mean of 2-5 determinations unless otherwise indicated (a: >=6 determinations; b: single determination); read-out: LRRK2 WT IC50
Chain of GST-tagged truncated LRRK2 (Q5S007 970-2527): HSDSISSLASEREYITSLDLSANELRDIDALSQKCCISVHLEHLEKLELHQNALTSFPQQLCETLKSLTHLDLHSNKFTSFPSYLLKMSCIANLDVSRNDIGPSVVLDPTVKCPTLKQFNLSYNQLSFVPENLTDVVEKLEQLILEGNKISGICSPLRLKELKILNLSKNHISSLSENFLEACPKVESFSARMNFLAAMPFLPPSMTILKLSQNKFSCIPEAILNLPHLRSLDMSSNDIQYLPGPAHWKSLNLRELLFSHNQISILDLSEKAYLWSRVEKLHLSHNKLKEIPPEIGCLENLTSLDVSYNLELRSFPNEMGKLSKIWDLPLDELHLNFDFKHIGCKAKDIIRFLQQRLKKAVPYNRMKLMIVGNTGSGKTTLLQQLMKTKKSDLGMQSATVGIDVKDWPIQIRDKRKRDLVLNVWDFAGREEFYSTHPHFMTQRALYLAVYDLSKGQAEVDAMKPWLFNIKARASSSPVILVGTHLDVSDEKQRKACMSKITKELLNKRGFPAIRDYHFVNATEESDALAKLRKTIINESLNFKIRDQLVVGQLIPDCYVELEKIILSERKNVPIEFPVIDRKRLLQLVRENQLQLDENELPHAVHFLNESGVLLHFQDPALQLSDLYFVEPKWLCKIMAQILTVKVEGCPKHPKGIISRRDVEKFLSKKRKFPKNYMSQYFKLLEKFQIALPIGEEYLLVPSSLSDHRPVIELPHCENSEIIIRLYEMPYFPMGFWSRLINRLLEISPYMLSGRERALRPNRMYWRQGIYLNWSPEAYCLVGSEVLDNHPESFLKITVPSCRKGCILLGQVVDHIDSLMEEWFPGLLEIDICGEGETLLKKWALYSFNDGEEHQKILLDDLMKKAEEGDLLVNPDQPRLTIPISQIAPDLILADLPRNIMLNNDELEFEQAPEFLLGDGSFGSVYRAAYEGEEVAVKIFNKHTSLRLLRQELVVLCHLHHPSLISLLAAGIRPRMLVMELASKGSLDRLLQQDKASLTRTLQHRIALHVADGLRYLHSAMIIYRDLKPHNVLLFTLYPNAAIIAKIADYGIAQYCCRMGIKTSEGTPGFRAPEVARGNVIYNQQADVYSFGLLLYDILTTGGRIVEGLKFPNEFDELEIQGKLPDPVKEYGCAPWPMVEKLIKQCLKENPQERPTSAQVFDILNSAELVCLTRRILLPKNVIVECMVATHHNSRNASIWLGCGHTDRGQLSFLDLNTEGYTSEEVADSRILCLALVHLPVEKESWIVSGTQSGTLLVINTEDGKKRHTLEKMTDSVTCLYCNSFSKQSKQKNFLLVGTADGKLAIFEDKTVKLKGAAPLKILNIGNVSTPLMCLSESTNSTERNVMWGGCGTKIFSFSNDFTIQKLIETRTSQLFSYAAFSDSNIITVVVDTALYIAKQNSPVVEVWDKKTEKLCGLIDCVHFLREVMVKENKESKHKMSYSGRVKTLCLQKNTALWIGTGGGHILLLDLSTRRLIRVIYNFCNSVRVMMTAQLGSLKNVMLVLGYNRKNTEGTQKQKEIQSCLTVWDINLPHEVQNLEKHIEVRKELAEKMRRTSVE

Chain of mutant G2019S LRRK2 (Q5S007 970-2527 G2019S): as the sequence (Q5S007 970-2527) above, with G1050S counted along it

Row | SMILES | IC50 [1] [nM] | IC50 [2] [nM]
1 | COCC1CN(c2ncnc3[nH]cc(-c4cccc(C#N)c4)c23)CCO1 (single isomer, unassigned) [Example 197] | 245 | 214
2 | C[C@H]1CCCN(c2ncnc3[nH]cc(-c4cccnc4)c23)C1 [Example 51, 4-[(3S)-3-methylpiperidin-1-yl]-5-(pyridin-3-yl)-7H-pyrrolo[2,3-d]pyrimidine] | 95 | 56
3 | N#Cc1cccc(-c2c[nH]c3ncnc(N4CCCC5(CCOC5)C4)c23)c1 (stereo not drawn) [Example 43, 3-[4-(2-oxa-7-azaspiro[4.5]dec-7-yl)-7H-pyrrolo[2,3-d]pyrimidin-5-yl]benzonitrile] | 244 | 34
4 | CN1CCCC(Nc2ncnc3[nH]cc(-c4cccc(C#N)c4)c23)C1 (stereo not drawn) [Example 39, 3-{4-[(1-methylpiperidin-3-yl)amino]-7H-pyrrolo[2,3-d]pyrimidin-5-yl}benzonitrile] | 243 | 78
5 | N#Cc1cccc(-c2c[nH]c3ncnc(N4CCCC(O)C4)c23)c1 (stereo not drawn) [Example 138, 3-[4-(3-hydroxypiperidin-1-yl)-7H-pyrrolo[2,3-d]pyrimidin-5-yl]benzonitrile] | 27 | 10
6 | COc1cc(F)cc(-c2c[nH]c3ncnc(N4CCC(F)CC4)c23)c1 [Example 160, 5-(3-fluoro-5-methoxyphenyl)-4-(4-fluoropiperidin-1-yl)-7H-pyrrolo[2,3-d]pyrimidine] | 96 | 84
7 | CN(C)c1ncnc2[nH]cc(-c3cccc(C#N)c3)c12 [Example 5, 3-[4-(Dimethylamino)-7H-pyrrolo[2,3-d]pyrimidin-5-yl]benzonitrile] | 15 | 5
8 | CC1CCCN(c2ncnc3[nH]cc(-c4cccc(C#N)c4)c23)C1 (single isomer, unassigned) [Example 41] | 172 | 70
9 | N#Cc1cccc(-c2c[nH]c3ncnc(N4CCC(F)(F)C4)c23)c1 [Example 136, 3-[4-(3,3-difluoropyrrolidin-1-yl)-7H-pyrrolo[2,3-d]pyrimidin-5-yl]benzonitrile] | 194 | 74
10 | C[C@H]1CCCN(c2ncnc3[nH]cc(-c4cccc(C#N)c4)c23)C1 [Example 16, 3-{4-[(3S)-3-methylpiperidin-1-yl]-7H-pyrrolo[2,3-d]pyrimidin-5-yl}benzonitrile] | 45 | 16
11 | Cc1cc(C2CN(c3ncnc4[nH]cc(-c5cccc(C#N)c5)c34)CCO2)on1 (stereo not drawn) [Example 202, 3-{4-[2-(3-Methyl-1,2-oxazol-5-yl)morpholin-4-yl]-7H-pyrrolo[2,3-d]pyrimidin-5-yl}benzonitrile] | 350 | 64.7
12 | C[C@H]1CCCN(c2ncnc3[nH]cc(-c4ccc5c(c4)C(=O)NC5)c23)C1 [Example 54, 6-{4-[(3S)-3-methylpiperidin-1-yl]-7H-pyrrolo[2,3-d]pyrimidin-5-yl}-2,3-dihydro-1H-isoindol-1-one] | 59 | 68
13 | CCN(CC)c1ncnc2[nH]cc(-c3cccc(C#N)c3)c12 [Example 73, 3-[4-(diethylamino)-7H-pyrrolo[2,3-d]pyrimidin-5-yl]benzonitrile] | 119 | 13
14 | C[C@H]1CCCN(c2ncnc3[nH]cc(-c4cccc5[nH]ncc45)c23)C1 [Example 48, 5-(1H-indazol-4-yl)-4-[(3S)-3-methylpiperidin-1-yl]-7H-pyrrolo[2,3-d]pyrimidine] | 14 | 10
15 | N#Cc1cccc(-c2c[nH]c3ncnc(N4CCC(F)CC4)c23)c1 [Example 33, 3-[4-(4-fluoropiperidin-1-yl)-7H-pyrrolo[2,3-d]pyrimidin-5-yl]benzonitrile] | 96 | 17
16 | C[C@H]1CCCN(c2ncnc3[nH]cc(-c4cnc5[nH]ccc5c4)c23)C1 [Example 53, 4-[(3S)-3-methylpiperidin-1-yl]-5-(7H-pyrrolo[2,3-b]pyridin-5-yl)-7H-pyrrolo[2,3-d]pyrimidine] | 69 | 74
17 | Cn1cc(-c2c[nH]c3ncnc(N4CCOC(CO)C4)c23)cn1 (stereo not drawn) [Example 124, {4-[5-(1-methyl-1H-pyrazol-4-yl)-7H-pyrrolo[2,3-d]pyrimidin-4-yl]morpholin-2-yl}methanol] | 80 | 77
18 | CC1CCN(c2ncnc3[nH]cc(-c4cccc(C#N)c4)c23)C1 (single isomer, unassigned) [Example 77] | 158 | 39
19 | C[C@H]1CN(c2ncnc3[nH]cc(-c4cccc(C#N)c4)c23)CCO1 [Example 6, 3-{4-[(2S)-2-Methylmorpholin-4-yl]-7H-pyrrolo[2,3-d]pyrimidin-5-yl}benzonitrile] | 37 | 7
20 | COc1cc(F)cc(-c2c[nH]c3ncnc(N4CCCC(O)C4)c23)c1 (stereo not drawn) [Example 164, 1-[5-(3-fluoro-5-methoxyphenyl)-7H-pyrrolo[2,3-d]pyrimidin-4-yl]piperidin-3-ol] | 38 | 29
21 | Cc1nc(N2CCOCC2)c2c(-c3cccc(C#N)c3F)c[nH]c2n1 [Example 154, 2-fluoro-3-[2-methyl-4-(morpholin-4-yl)-7H-pyrrolo[2,3-d]pyrimidin-5-yl]benzonitrile] | 365 | 30
22 | CC(=O)NC1CCN(c2ncnc3[nH]cc(-c4cccc(C#N)c4)c23)CC1 [Example 44, N-{1-[5-(3-cyanophenyl)-7H-pyrrolo[2,3-d]pyrimidin-4-yl]piperidin-4-yl}acetamide] | 190 | 50
23 | C[C@H]1CN(c2ncnc3[nH]cc(-c4cccc(F)c4)c23)CCO1 [Example 182, 5-(3-fluorophenyl)-4-[(2S)-2-methylmorpholin-4-yl]-7H-pyrrolo[2,3-d]pyrimidine] | 82 | 38
24 | CN(c1ncnc2[nH]cc(-c3cnn(C)c3)c12)C1CC1 [Example 127, N-cyclopropyl-N-methyl-5-(1-methyl-1H-pyrazol-4-yl)-7H-pyrrolo[2,3-d]pyrimidin-4-amine] | 37 | 37
25 | Cc1cnc(Cl)c(-c2c[nH]c3ncnc(N4CCC[C@H](C)C4)c23)c1 [Example 59, 5-(2-chloro-5-methylpyridin-3-yl)-4-[(3S)-3-methylpiperidin-1-yl]-7H-pyrrolo[2,3-d]pyrimidine] | 30 | 30
26 | Cc1ccc(OCC2CN(c3ncnc4[nH]cc(-c5cnn(C)c5)c34)CCO2)cn1 (stereo not drawn) [Example 125, 5-(1-methyl-1H-pyrazol-4-yl)-4-(2-{[(6-methylpyridin-3-yl)oxy]methyl}morpholin-4-yl)-7H-pyrrolo[2,3-d]pyrimidine] | 87 | 54

The remaining lines, values ahead:

Row | IC50 [1] [nM] | IC50 [2] [nM] | SMILES
27 | 177 | 77 | COc1cc(C#N)cc(-c2c[nH]c3ncnc(N4CCOCC4)c23)c1 [Example 118, 3-methoxy-5-[4-(morpholin-4-yl)-7H-pyrrolo[2,3-d]pyrimidin-5-yl]benzonitrile]
28 | 64 | 8 | N#Cc1cccc(-c2c[nH]c3ncnc(N4CCCC4)c23)c1 [Example 70, 3-[4-(pyrrolidin-1-yl)-7H-pyrrolo[2,3-d]pyrimidin-5-yl]benzonitrile]
29 | 19 | 12 | OCc1cccc(-c2c[nH]c3ncnc(N4CCOCC4)c23)c1 [Example 100, {3-[4-(morpholin-4-yl)-7H-pyrrolo[2,3-d]pyrimidin-5-yl]phenyl}methanol]
30 | 406 | 77 | N#Cc1cc(Cl)cc(-c2c[nH]c3ncnc(N4CCOCC4)c23)c1 [Example 114, 3-chloro-5-[4-(morpholin-4-yl)-7H-pyrrolo[2,3-d]pyrimidin-5-yl]benzonitrile]
31 | 118 | 21.9 | N#Cc1ccc(-c2c[nH]c3ncnc(N4CCOCC4)c23)s1 [Example 211, 5-[4-(morpholin-4-yl)-7H-pyrrolo[2,3-d]pyrimidin-5-yl]thiophene-2-carbonitrile]
32 | 34 | 25 | COc1cccc(F)c1-c1c[nH]c2ncnc(N3CCOCC3)c12 [Example 190, 5-(2-fluoro-6-methoxyphenyl)-4-(morpholin-4-yl)-7H-pyrrolo[2,3-d]pyrimidine]
33 | 20 | 9 | COc1cc(F)cc(-c2c[nH]c3ncnc(N4CCOCC4)c23)c1 [Example 85, 5-(3-fluoro-5-methoxyphenyl)-4-(morpholin-4-yl)-7H-pyrrolo[2,3-d]pyrimidine]
34 | 154 | 95 | Fc1ccc(-c2c[nH]c3ncnc(N4CCOCC4)c23)cc1 [Example 99, 5-(4-fluorophenyl)-4-(morpholin-4-yl)-7H-pyrrolo[2,3-d]pyrimidine]
35 | 167 | 76.7 | C1=C(c2c[nH]c3ncnc(N4CCOCC4)c23)CCCO1 [Example 200, 5-(3,4-Dihydro-2H-pyran-5-yl)-4-(morpholin-4-yl)-7H-pyrrolo[2,3-d]pyrimidine]
36 | 20 | 13 | Cc1cccc(-c2c[nH]c3ncnc(N4CCOCC4)c23)c1 [Example 107, 5-(3-methylphenyl)-4-(morpholin-4-yl)-7H-pyrrolo[2,3-d]pyrimidine]
37 | 135 | 70 | OCc1cc(-c2c[nH]c3ncnc(N4CCOCC4)c23)ccc1F [Example 98, {2-fluoro-5-[4-(morpholin-4-yl)-7H-pyrrolo[2,3-d]pyrimidin-5-yl]phenyl}methanol]
38 | 393 | 49 | N#Cc1ccc(F)c(-c2c[nH]c3ncnc(N4CCOCC4)c23)c1 [Example 80, 4-fluoro-3-[4-(morpholin-4-yl)-7H-pyrrolo[2,3-d]pyrimidin-5-yl]benzonitrile]
39 | 12.3 | 6.26 | c1cnn2c(-c3c[nH]c4ncnc(N5CCOCC5)c34)cnc2c1 [Example 212, 5-(imidazo[1,2-b]pyridazin-3-yl)-4-(morpholin-4-yl)-7H-pyrrolo[2,3-d]pyrimidine]
